Measured values taken from US10543199B2, “Macrocycle and composition comprising thereof” (Shenzhen TargetRx, Inc., priority 2016, dated 2020).

Experiments:
[1] = test system: BaF3-NPM-ALK cells (ALK WT); assay: Cytotoxicity experiments, growth of BaF3-NPM-ALK cells, ALK WT; assay type: cell-based, murine; conditions: two days incubation
Excerpt: Cytotoxicity Experiments.
The cell line that can be used in the assay is Ba/F3, a murine pro-B cell line that has been stably transfected with the expression vector pClneo™ (Promega Corp., Madison Wis.) encoding NPM-ALK and subsequently G418-resistent cells were selected. The inhibitory activity of the compounds of Formula I can be determined as follows: BaF3-NPM-ALK cells (15000/well in a microtiter plate) were transferred to a 96-well microtiter plate. Test compounds (dissolved in DMSO) were then added in a series of concentrations (serial dilutions) with a final concentration of DMSO not exceeding 1% (v/v). […] The cell lysis was completed at room temperature within 60 minutes and the amount of Yopro bound to the DNA was determined by measurement using, for example, a CytoFluor II 96-well reader (PerSeptive Biosystems). IC50 can be determined by computer aided system using the following formula: IC50=[(ABS test−ABS start)/(ABS control−ABS start)]×100 wherein ABS was absorption.

[2] = test system: cancer cells expressing the ALK mutant L1196M; assay: Cytotoxicity experiments, growth of cells expressing ALK mutant L1196M; assay type: cell-based, murine; conditions: two days incubation
[3] = Metabolic stability in human liver microsomes; assay type: in vitro ADME; conditions: human liver microsomes 0.5 mg/mL, compound 1 μM
Experimental: Metabolic Experiment of Liver Microparticle.
Experiments in microsomes: Human liver microsomes: 0.5 mg/mL, Xenotech; Rat liver microsomes: 0.5 mg/mL, Xenotech; Coenzyme (NADPH/NADH): 1 mM, Sigma Life Science; Magnesium chloride: 5 mM, 100 mM phosphate buffer (pH 7.4).
Preparation of phosphate buffer (100 mM, pH7.4): A pre-formulated 0.5M potassium dihydrogen phosphate (150 mL) was mixed with 0.5M dibasic potassium phosphate (700 mL). The pH of the mixture was adjusted to 7.4 with 0.5M dibasic potassium phosphate solution. The mixture was diluted 5-fold with ultrapure water before use, and magnesium chloride was added to obtain a phosphate buffer (100 mM) containing 100 mM potassium phosphate, 3.3 mM magnesium chloride, pH 7.4.
A NADPH regeneration system solution (containing 6.5 mM NADP, 16.5 mM G-6-P, 3 U/mL G-6-PD, 3.3 mM magnesium chloride) was prepared and placed on wet ice prior to use.
Preparation of stop solution: acetonitrile solution containing 50 ng/mL propranolol hydrochloride and 200 ng/mL tolbutamide (internal standard). 25057.5 μL of phosphate buffer (pH 7.4) was taken into a 50 mL centrifuge tube, to which 812.5 μL human liver microsomes were added, and mixed to obtain a liver microsome dilution solution with a protein concentration of 0.625 mg/mL.
Incubation of the samples: The stock solution of the respective compound was respectively diluted to 0.25 mM with an aqueous solution containing 70% acetonitrile, and used as a working solution, ready for use. 398 μL of the dilution solution of human liver microsomes or rat liver microsome were added to a 96-well incubation plate (N=2), respectively, and 2 μL of 0.25 mM working solution was added and mixed.
Metabolic stability assay: 300 μL of pre-chilled stop solution was added to each well of a 96-well deep well plate and placed on ice as a stop plate. The 96 well incubation plate and NADPH regeneration system were placed in a 37° C. water bath box, shaken at 100 rpm and pre-incubated for 5 min. 80 μL of incubation solution was taken out from each well of the incubation plate and added to the stop plate, mixed, and replenished with 20 μL of NADPH regeneration system solution as a 0-min sample. 80 μL of NADPH regeneration system solution was added to each well of the incubation plate to start the reaction and start counting. […] 100 μL of the supernatant was added to a 96-well plate to which 100 μL of distilled water was previously added, mixed, and analyzed by LC-MS/MS.
Data analysis: The peak areas of the corresponding compound and internal standard were detected by LC-MS/MS system, and the ratio of the peak area of the compound to the internal standard was calculated.

Row | CLint [3] | t1/2 [3] | SMILES | IC50 [1] | IC50 [2]
1 |  |  | CC1Oc2cc(cnc2N)-c2c(nn(C)c2C#N)CN(C)C(=O)c2ccc(F)cc21 (racemic) [Compound 72] | < 1 nM | 1 to 100 nM
2 |  |  | CC1Oc2cc(cnc2N)-c2c(nn(C)c2C#N)CN(C)C(=O)c2ccc(F)cc21 (stereo not drawn) [Compound 18] | < 1 nM | 1 to 100 nM
3 |  |  | CC1Oc2cc(cnc2N)-c2c(nn(C)c2C#N)CN(C)C(=O)c2ccc(F)cc21 (stereo not drawn) [Compound 28] | < 1 nM | 1 to 100 nM
4 | 9.7 µL/min/mg | 2.377 h | [2H]C([2H])([2H])n1nc2c(c1C#N)-c1cnc(N)c(c1)OC(C)c1cc(F)ccc1C(=O)N(C)C2 (stereo not drawn) [Compound 28] |  | 
5 |  |  | CC1Oc2cc(cnc2N)-c2c(nn(C)c2C#N)CN(C)C(=O)c2ccc(F)cc21 (stereo not drawn) [Compound 45] | < 1 nM | 1 to 100 nM
6 |  |  | CC1Oc2cc(cnc2N)-c2c(nn(C)c2C#N)CN(C)C(=O)c2ccc(F)cc21 (stereo not drawn) [Compound 58] | < 1 nM | 1 to 100 nM
7 |  |  | CC1Oc2cc(cnc2N)-c2c(nn(C)c2C#N)CN(C)C(=O)c2ccc(F)cc21 (stereo not drawn) [Compound 76] | < 1 nM | 1 to 100 nM
8 | 11.8 µL/min/mg | 1.952 h | C[C@H]1Oc2cc(cnc2N)-c2c(nn(C)c2C#N)CN(C)C(=O)c2ccc(F)cc21 [PF-06463922, reference compound] | < 1 nM | 1 to 100 nM
